The values that follow come from patent US5827872A, “Xenomins novel heterocyclic compounds with antimicrobial and antneoplastic properties” (priority 1996, dated 1998).

Converted amounts (≈) assume the structure as drawn. Some results are limits rather than exact numbers.

One may read the IC50 as the concentration at which inhibition is half-maximal. The MIC is the least concentration at which growth counts as inhibited. A lower MIC goes with a more susceptible organism.

What all share (type): cell-based
Assay [1] relates to cervical cancer Hela. In words: Antineoplastic activity in vitro, method of Skehan et al. (1990), Hela. The note with it: Homo sapiens, Hela cells. The method, then: (§1) The antineoplastic activities of xenomins have been determined in vitro in cell cultures of human colon cancer HT-29, breast cancer MCF-7 and cervical cancer Hela. The tests were carried out using the method described by Skehan et al. (1990).

For assay [2], the system named is Bacillus subtilis. In words: MIC by standard dilution method (NCCLS 1990), Bacillus subtilis. The following applies: 35° C., 24 h incubation. The method, then:
(§2) To determine minimum inhibitory concentration (MIC) of the xenomins, the standard dilution method was used as outlined by The National Committee for Clinical Laboratory Standards (1990) for testing antibiotics. The tests were coducted at 35° C. and the MICs were determined after 24 h incubation.

Assay [3] has as its system Candida tropicalis CBS 94. In words: MIC by standard dilution method (NCCLS 1990), Candida tropicalis CBS 94. The following applies: CBS94, 35° C., 24 h incubation. The method, then: as §2
Assay [4] relates to S. aureus 0017. Description: MIC by standard dilution method (NCCLS 1990), S. aureus 0017 (methicillin-resistant clinical isolate). The note with it: Staphylococcus aureus; S. aureus 0017, clinical isolate of methicillin-resistant strain; 35° C., 24 h incubation. The method, then: as §2
(§3) *clinical isolates of methicillinresistant strain.

For assay [5], the system named is breast cancer MCF-7. In words: Antineoplastic activity in vitro, method of Skehan et al. (1990), MCF-7. The following applies: Homo sapiens, MCF7, MCF-7 cells. The method, then: as §1
For assay [6], the system named is S. aureus 0012. Description: MIC by standard dilution method (NCCLS 1990), S. aureus 0012 (methicillin-resistant clinical isolate). The note with it: Staphylococcus aureus; S. aureus 0012, clinical isolate of methicillin-resistant strain; 35° C., 24 h incubation. The method, then: as §2, §3
For assay [7], the system named is human colon cancer HT-29. Description: Antineoplastic activity in vitro, method of Skehan et al. (1990), HT-29. The note with it: HT29 cells. The method, then:
as §1

The subject of assay [8] is Cryptococcus neoformans ATCC14117. Description: MIC by standard dilution method (NCCLS 1990), Cryptococcus neoformans ATCC14117. The note with it: 35° C., 24 h incubation. The method, then: as §2
For assay [9], the system named is Staphylococcus aureus ATCC 29213. In words: MIC by standard dilution method (NCCLS 1990), Staphylococcus aureus ATCC 29213. The note with it: ATCC29213, 35° C., 24 h incubation. The method, then:
as §2

Take `CC(C)CCCC(=O)Nc1c2[s+]([O-])scc-2n(C)c1=O` (single isomer, unassigned) [Xenomin 2]: the IC50 in [1] worked out at 0.65 µg/mL (≈ 2.07 µM); in assay [5], 1.74 µg/mL (≈ 5.53 µM); in assay [7], 0.34 µg/mL (≈ 1.08 µM). Also, the MIC in [2] was 41 µg/mL (≈ 130 µM); in assay [3] it was over 100 µg/mL; in assay [4], 41 µg/mL (≈ 130 µM); in [6] it was 41 µg/mL (≈ 130 µM); in assay [8] it was 25 µg/mL (≈ 79.5 µM); in assay [9], 41 µg/mL (≈ 130 µM).
As for `CCCCCC(=O)Nc1c2[s+]([O-])scc-2n(C)c1=O` (single isomer, unassigned) [Xenomin 1], the IC50 is 0.24 µg/mL (≈ 0.799 µM) in [1], 1.37 µg/mL (≈ 4.56 µM) in assay [5] and 0.14 µg/mL (≈ 0.466 µM) in assay [7]. Moreover, the MIC amounted to 5 µg/mL (≈ 16.6 µM) in assay [2]; 100 µg/mL (≈ 333 µM) in assay [3]; 10 µg/mL (≈ 33.3 µM) in assay [4]; 10 µg/mL (≈ 33.3 µM) in assay [6]; 13 µg/mL (≈ 43.3 µM) in assay [8]; 20 µg/mL (≈ 66.6 µM) in assay [9].
